Measured values as given in ChEMBL document CHEMBL4402573, “Discovery and Optimization of α-Mangostin Derivatives as Novel PDE4 Inhibitors for the Treatment of Vascular Dementia” (J Med Chem, 2020).
Active and inactive are the calls of the source. The rule behind the calls is not given here.

Experiments:
[1] = biological target: 3',5'-cyclic-AMP phosphodiesterase 4D (Homo sapiens, UniProt Q08499); test: Inhibition of human PDE4D2 (86 to 413 residues) expressed in Escherichia coli BL21 codon-plus cells using [3H]cAMP as substrate incubated for 15 mins by liquid scintillation counting method
[2] = Inhibition of human PDE4D7 (1 to 748 residues) expressed in Escherichia coli BL21 codon-plus cells using [3H]cAMP as substrate incubated for 15 mins by liquid scintillation counting method
[3] = Protein binding in rat plasma at 1 uM by LC-MS/MS analysis; assay type: ADME, cell-free; details: read-out: PPB
[4] = AUC(0 to t) in Sprague-Dawley rat at 2.5 mg/kg, iv measured upto 24 hrs by LC-MS/MS analysis; assay type: ADME, organism-based; design: dose 2.5 mg/kg, time < 24 hr, route intravenous; details: in vivo
Homo sapiens [5] = species: Homo sapiens; test: Selectivity index, ratio of IC50 for human PDE2A (580 to 919 residues) expressed in Escherichia coli BL21 codon-plus cells to IC50 for human PDE4D2 (86 to 413 residues) expressed in Escherichia coli BL21 codon-plus cells
Cytochrome P450 2B6 = Cytochrome P450 2B6 (Homo sapiens, UniProt P20813); test: Inhibition of human CYP2B6; assay type: ADME
Cytochrome P450 2B6, sequence (P20813 whole entry, the tested form may be a part): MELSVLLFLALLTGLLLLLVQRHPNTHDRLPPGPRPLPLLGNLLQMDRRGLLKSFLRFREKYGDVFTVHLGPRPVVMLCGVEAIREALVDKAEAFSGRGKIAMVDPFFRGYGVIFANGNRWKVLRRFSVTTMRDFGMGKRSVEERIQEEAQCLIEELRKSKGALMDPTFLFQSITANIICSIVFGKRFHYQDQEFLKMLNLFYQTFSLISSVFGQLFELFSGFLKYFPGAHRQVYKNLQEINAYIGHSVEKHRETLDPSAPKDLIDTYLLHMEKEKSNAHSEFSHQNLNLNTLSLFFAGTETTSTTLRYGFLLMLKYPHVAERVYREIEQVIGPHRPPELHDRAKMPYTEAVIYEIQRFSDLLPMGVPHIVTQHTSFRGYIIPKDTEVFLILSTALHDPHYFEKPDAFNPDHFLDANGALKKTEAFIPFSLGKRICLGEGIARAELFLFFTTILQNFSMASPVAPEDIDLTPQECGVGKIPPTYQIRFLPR

[6] = biological target: T1, 3',5'-cyclic-AMP phosphodiesterase 4B (Homo sapiens, UniProt Q07343); test: Partial inhibition of human PDE4B1 (1 to 736 residues) expressed in Escherichia coli BL21 codon-plus cells using [3H]cAMP as substrate incubated with compound at high concentrations for 15 mins by liquid scintillation counting method relative to control
T1 sequence (Q07343 whole entry, the tested form may be a part): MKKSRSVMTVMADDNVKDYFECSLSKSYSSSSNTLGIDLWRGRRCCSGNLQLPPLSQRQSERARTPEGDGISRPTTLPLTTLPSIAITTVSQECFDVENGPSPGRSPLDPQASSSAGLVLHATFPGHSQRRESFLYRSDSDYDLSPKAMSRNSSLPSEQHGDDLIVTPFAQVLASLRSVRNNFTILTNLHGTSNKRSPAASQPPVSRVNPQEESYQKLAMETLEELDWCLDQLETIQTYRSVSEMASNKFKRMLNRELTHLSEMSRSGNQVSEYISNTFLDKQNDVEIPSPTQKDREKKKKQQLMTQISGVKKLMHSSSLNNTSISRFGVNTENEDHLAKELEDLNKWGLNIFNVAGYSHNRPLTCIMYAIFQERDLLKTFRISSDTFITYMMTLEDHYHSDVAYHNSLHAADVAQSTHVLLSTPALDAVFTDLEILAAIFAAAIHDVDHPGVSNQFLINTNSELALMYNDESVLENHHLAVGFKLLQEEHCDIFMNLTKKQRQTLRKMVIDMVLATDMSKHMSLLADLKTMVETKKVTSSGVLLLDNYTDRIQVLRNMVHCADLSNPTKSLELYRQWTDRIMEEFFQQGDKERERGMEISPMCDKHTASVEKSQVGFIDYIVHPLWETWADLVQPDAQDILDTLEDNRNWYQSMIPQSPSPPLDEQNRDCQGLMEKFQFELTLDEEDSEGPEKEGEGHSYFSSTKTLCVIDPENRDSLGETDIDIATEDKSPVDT

Cytochrome P450 1A2 = Cytochrome P450 1A2 (Homo sapiens, UniProt P05177); test: Inhibition of human CYP1A2; assay type: ADME
Cytochrome P450 1A2, sequence (P05177 whole entry, the tested form may be a part): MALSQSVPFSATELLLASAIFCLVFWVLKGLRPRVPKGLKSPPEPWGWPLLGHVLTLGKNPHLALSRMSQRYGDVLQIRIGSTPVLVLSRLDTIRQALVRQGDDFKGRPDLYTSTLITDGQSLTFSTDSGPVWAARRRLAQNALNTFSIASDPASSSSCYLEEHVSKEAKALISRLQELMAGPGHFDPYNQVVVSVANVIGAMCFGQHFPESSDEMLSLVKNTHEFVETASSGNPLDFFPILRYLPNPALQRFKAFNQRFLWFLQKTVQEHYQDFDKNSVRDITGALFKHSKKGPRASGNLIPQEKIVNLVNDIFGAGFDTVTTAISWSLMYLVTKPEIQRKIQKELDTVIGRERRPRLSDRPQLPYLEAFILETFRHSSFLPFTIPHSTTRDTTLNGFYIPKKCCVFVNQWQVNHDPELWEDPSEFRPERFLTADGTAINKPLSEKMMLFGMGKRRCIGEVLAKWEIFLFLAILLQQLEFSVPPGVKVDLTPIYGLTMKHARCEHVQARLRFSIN

Homo sapiens [7] = species: Homo sapiens; test: Selectivity index, ratio of IC50 for human PDE8A1 (480 to 820 residues) expressed in Escherichia coli BL21 codon-plus cells to IC50 for human PDE4D2 (86 to 413 residues) expressed in Escherichia coli BL21 codon-plus cells
[8] = Tmax in Sprague-Dawley rat at 2.5 mg/kg, iv measured upto 24 hrs by LC-MS/MS analysis; assay type: ADME, organism-based; details: in vivo
Homo sapiens [9] = species: Homo sapiens; test: Selectivity index, ratio of IC50 for human PDE10A2 (449 to 770 residues) expressed in Escherichia coli BL21 codon-plus cells to IC50 for human PDE4D2 (86 to 413 residues) expressed in Escherichia coli BL21 codon-plus cells
[10] = biological target: T1, 3',5'-cyclic-AMP phosphodiesterase 4B; test: Inhibition of human PDE4B2 (152 to 487 residues) expressed in Escherichia coli BL21 codon-plus cells using [3H]cAMP as substrate incubated for 15 mins by liquid scintillation counting method
Cytochrome P450 3A4 = Cytochrome P450 3A4 (Homo sapiens, UniProt P08684); test: Inhibition of human CYP3A4; assay type: ADME
[11] = Toxicity in Beagle dog assessed as animals exhibiting emesis at 10 mg/kg, po observed for 180 mins; assay type: organism-based, Canis lupus familiaris; details: in vivo, 3 h
[12] = biological target: High affinity cGMP-specific 3',5'-cyclic phosphodiesterase 9A (Homo sapiens, UniProt O76083); test: Inhibition of human PDE9A2 (181 to 506 residues) expressed in Escherichia coli BL21 codon-plus cells using [3H]cGMP as substrate incubated for 15 mins by liquid scintillation counting method
High affinity cGMP-specific 3',5'-cyclic phosphodiesterase 9A, sequence (O76083 whole entry, the tested form may be a part): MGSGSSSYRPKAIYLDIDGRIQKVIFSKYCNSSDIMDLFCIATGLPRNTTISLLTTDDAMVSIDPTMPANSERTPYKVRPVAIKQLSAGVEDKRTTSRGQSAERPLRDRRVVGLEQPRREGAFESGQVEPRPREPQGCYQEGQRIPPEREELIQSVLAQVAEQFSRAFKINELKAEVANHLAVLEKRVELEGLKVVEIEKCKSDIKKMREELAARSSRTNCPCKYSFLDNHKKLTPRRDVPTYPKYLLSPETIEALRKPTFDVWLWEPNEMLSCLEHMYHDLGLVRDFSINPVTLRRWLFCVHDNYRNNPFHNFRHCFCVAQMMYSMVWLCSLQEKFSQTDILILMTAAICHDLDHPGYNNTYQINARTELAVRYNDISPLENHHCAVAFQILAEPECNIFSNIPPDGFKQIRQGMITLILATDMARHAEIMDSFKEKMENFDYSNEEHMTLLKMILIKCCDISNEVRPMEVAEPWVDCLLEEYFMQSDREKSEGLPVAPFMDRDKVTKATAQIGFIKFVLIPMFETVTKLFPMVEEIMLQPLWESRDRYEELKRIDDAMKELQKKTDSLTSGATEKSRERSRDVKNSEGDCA

[13] = biological target: Dual specificity calcium/calmodulin-dependent 3',5'-cyclic nucleotide phosphodiesterase 1B (Homo sapiens, UniProt Q01064); test: Inhibition of human PDE1B (10 to 487 residues) expressed in Escherichia coli BL21 codon-plus cells using [3H]cAMP as substrate incubated for 15 mins by liquid scintillation counting method
Dual specificity calcium/calmodulin-dependent 3',5'-cyclic nucleotide phosphodiesterase 1B, sequence (Q01064 whole entry, the tested form may be a part): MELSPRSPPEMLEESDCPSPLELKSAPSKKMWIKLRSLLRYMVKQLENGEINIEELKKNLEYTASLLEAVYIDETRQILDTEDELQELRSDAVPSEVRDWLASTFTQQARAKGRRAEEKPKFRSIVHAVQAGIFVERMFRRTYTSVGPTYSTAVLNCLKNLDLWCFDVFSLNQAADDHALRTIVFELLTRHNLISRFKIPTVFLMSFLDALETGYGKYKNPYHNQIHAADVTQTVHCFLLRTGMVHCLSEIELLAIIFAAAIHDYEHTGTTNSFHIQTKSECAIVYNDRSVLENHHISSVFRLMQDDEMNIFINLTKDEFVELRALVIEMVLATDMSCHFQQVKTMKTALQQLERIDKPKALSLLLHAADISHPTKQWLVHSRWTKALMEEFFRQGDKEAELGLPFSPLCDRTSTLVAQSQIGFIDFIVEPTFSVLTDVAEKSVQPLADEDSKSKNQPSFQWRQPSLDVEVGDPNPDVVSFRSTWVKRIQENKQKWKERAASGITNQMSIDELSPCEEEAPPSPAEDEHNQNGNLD

Cytochrome P450 2C9 = Cytochrome P450 2C9 (Homo sapiens, UniProt P11712); test: Inhibition of human CYP2C9; assay type: ADME
[14] = Cmax in Sprague-Dawley rat at 2.5 mg/kg, iv measured upto 24 hrs by LC-MS/MS analysis; assay type: ADME, organism-based; design: dose 2.5 mg/kg, route intravenous; details: in vivo
[15] = Acute toxicity in Kunming mouse at >=1.5 g/kg, po administered as single dose and measured for 14 days; assay type: organism-based; details: in vivo, 1500 mg/kg, 336 h
[16] = biological target: cGMP-dependent 3',5'-cyclic phosphodiesterase (Homo sapiens, UniProt O00408); test: Inhibition of human PDE2A (580 to 919 residues) expressed in Escherichia coli BL21 codon-plus cells using [3H]cGMP as substrate incubated for 15 mins by liquid scintillation counting method
cGMP-dependent 3',5'-cyclic phosphodiesterase, sequence (O00408 whole entry, the tested form may be a part): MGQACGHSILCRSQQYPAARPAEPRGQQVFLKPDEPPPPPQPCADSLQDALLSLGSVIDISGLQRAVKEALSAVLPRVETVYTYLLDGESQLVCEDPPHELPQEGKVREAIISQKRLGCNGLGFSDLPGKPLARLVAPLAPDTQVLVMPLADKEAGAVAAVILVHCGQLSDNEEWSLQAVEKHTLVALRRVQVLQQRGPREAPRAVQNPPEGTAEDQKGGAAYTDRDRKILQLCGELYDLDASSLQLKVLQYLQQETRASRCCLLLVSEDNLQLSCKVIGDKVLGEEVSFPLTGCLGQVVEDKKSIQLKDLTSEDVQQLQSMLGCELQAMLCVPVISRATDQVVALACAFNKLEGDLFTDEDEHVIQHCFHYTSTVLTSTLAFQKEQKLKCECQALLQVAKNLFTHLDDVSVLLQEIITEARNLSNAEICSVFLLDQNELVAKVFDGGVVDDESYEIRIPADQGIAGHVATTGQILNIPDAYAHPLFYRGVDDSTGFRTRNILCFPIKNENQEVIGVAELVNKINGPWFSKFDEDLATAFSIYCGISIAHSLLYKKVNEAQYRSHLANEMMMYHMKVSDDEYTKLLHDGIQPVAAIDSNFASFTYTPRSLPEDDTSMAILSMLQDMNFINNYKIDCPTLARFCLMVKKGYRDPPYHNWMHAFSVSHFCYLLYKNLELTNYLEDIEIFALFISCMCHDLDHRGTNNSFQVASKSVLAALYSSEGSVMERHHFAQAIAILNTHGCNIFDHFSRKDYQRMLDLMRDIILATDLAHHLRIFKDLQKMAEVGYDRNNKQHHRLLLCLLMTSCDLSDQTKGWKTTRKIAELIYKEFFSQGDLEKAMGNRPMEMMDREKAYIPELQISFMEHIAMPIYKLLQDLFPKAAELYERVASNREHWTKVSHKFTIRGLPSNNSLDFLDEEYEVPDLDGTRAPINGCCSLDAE

RAW264.7 = test: Antiinflammatory activity in mouse RAW264.7 assessed as reduction in LPS-induced NO production incubated for 24 hrs by Griess method; assay type: functional, cell-based
[17] = Oral bioavailability in Sprague-Dawley rat at 5 mg/kg measured upto 24 hrs by LC-MS/MS analysis; assay type: ADME, organism-based; details: in vivo
[18] = AUC(0 to infinity) in Sprague-Dawley rat at 5 mg/kg, po measured upto 24 hrs by LC-MS/MS analysis; assay type: ADME, organism-based; design: dose 5 mg/kg, time infinity, route oral; details: in vivo
[19] = AUC(0 to t) in Sprague-Dawley rat at 5 mg/kg, po measured upto 24 hrs by LC-MS/MS analysis; assay type: ADME, organism-based; design: dose 5 mg/kg, time < 24 hr, route oral; details: in vivo
[20] = biological target: High affinity cAMP-specific and IBMX-insensitive 3',5'-cyclic phosphodiesterase 8A (Homo sapiens, UniProt O60658); test: Inhibition of human PDE8A1 (480 to 820 residues) expressed in Escherichia coli BL21 codon-plus cells using [3H]cAMP as substrate incubated for 15 mins by liquid scintillation counting method
[21] = Toxicity in Beagle dog assessed as animals exhibiting emesis at 5 mg/kg, po observed for 180 mins; assay type: organism-based, Canis lupus familiaris; details: in vivo, 3 h
[22] = biological target: cGMP-inhibited 3',5'-cyclic phosphodiesterase 3A (Homo sapiens, UniProt Q14432); test: Inhibition of human PDE3A (679 to 1087 residues) expressed in Escherichia coli BL21 codon-plus cells using [3H]cAMP as substrate incubated for 15 mins by liquid scintillation counting method
Mus musculus [23] = test: Anti-VaD activity against UCCAO-induced spatial memory deficient C57BL/6J mouse model assessed as improvement in spatial learning and memory by measuring reduction in escape latency at 10 mg/kg, po administered for 21 days by Morris water maze test; assay type: functional, organism-based
[24] = biological target: T1, 3',5'-cyclic-AMP phosphodiesterase 4B; test: Inhibition of human PDE4B1 (1 to 736 residues) expressed in Escherichia coli BL21 codon-plus cells using [3H]cAMP as substrate incubated for 15 mins by liquid scintillation counting method
Mus musculus [25] = test: Anti-VaD activity against UCCAO-induced spatial memory deficient C57BL/6J mouse model assessed as improvement in spatial learning and memory by measuring decrease in error time at 10 mg/kg, po administered for 21 days by passive avoidance test; assay type: functional, organism-based
[26] = biological target: Voltage-gated inwardly rectifying potassium channel KCNH2 (Homo sapiens, UniProt Q12809); test: Inhibition of human ERG expressed in CHO cells by automated patch clamp electrophysiology; assay type: cell-based
Voltage-gated inwardly rectifying potassium channel KCNH2, sequence (Q12809 whole entry, the tested form may be a part): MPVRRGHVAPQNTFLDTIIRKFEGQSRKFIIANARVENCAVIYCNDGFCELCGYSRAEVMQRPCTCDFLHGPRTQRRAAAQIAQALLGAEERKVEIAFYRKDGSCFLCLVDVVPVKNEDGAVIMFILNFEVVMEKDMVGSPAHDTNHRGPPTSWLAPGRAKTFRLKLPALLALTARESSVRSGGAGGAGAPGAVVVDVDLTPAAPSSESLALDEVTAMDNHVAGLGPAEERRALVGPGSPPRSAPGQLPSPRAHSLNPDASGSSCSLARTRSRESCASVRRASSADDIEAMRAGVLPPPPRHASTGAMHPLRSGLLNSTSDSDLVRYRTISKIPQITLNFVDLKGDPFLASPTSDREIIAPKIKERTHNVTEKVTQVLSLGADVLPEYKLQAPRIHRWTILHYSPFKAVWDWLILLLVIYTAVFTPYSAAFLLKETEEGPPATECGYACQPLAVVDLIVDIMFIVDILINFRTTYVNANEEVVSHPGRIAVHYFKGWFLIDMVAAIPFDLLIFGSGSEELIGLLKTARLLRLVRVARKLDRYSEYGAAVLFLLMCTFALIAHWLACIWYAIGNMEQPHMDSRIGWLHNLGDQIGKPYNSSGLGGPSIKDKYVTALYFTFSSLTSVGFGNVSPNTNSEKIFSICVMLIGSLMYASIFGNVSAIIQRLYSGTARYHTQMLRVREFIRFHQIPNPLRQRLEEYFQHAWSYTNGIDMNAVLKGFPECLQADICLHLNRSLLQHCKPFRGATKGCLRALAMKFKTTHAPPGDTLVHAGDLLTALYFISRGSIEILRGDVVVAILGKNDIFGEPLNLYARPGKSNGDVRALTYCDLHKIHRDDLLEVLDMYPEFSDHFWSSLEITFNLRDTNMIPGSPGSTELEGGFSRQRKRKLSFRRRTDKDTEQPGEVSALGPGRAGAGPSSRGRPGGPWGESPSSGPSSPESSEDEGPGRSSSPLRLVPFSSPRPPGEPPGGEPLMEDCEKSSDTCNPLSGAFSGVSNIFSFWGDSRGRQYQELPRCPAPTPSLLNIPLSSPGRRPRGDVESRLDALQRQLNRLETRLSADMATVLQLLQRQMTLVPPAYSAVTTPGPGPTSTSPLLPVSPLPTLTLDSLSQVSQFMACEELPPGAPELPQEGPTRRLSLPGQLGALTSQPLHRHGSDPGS

Homo sapiens [27] = species: Homo sapiens; test: Selectivity index, ratio of IC50 for human PDE5A1 (535 to 860 residues) expressed in Escherichia coli BL21 codon-plus cells to IC50 for human PDE4D2 (86 to 413 residues) expressed in Escherichia coli BL21 codon-plus cells

Structure (SMILES): COc1c(OCCCCCCC(=O)O)cc2oc3cc4c(c(O)c3c(=O)c2c1CC=C(C)C)C=CC(C)(C)O4
- IC50 [1]: 0.017 µM
- IC50 [2]: 0.009 µM
- fraction unbound at 1 µM [3]: 0.01
- AUC(0-t) at 24 h [4]: 6670 ng·h/mL
- Ratio IC50 (Homo sapiens [5]): > 580
- IC50 (Cytochrome P450 2B6): > 10 µM
- inhibition [6]: 60%
- IC50 (Cytochrome P450 1A2): > 10 µM
- Ratio IC50 (Homo sapiens [7]): > 580
- Tmax [8]: 4.98 min
- Ratio IC50 (Homo sapiens [9]): > 580
- IC50 [10]: 0.01 µM
- IC50 (Cytochrome P450 3A4): > 10 µM
- Activity [11]: 0%
- IC50 [12]: > 10 µM
- IC50 [13]: > 10 µM
- IC50 (Cytochrome P450 2C9): > 10 µM
- Cmax [14]: 14100 ng/mL
- Activity [15]: Non-Toxic
- IC50 [16]: > 10 µM
- Activity (RAW264.7): Dose-dependent effect
- bioavailability [17]: 28%
- AUC(0-inf) [18]: 4790 ng·h/mL
- AUC(0-t) at 24 h [19]: 4740 ng·h/mL
- IC50 [20]: > 10 µM
- Activity [21]: 0%
- IC50 [22]: > 10 µM
- Activity (Mus musculus [23]): Active
- IC50 [24]: 0.008 µM
- Activity (Mus musculus [25]): Active
- IC50 [26]: > 30 µM
- Ratio IC50 (Homo sapiens [27]): 199
